Source: paper PMC4076079, “Selective inhibitors of a PAF biosynthetic enzyme lysophosphatidylcholine acyltransferase 2” (Journal of Lipid Research, 2014)
Read-outs that look alike come from different tables or passages of the source.

What was measured:
[1] = system: RAW-mLPCAT2 cells; experiment: cell-based assay: A23187-induced PAF production, PAF and lyso-PAF by LC-MS/MS; parameters: species or system mouse; conditions: for IC50: Mus musculus
Experimental: RAW-mLPCAT2 cells and peritoneal macrophages were seeded in 24-well plates (4 × 10^6 cells/well) for 24 or 2 h, respectively, before treatment. RAW-mLPCAT2 cells were stimulated with 5 μM A23187 for 5 min after a 1 h treatment with the compounds. Peritoneal macrophages were preincubated with 100 ng/ml LPS for 18 h, treated with the compounds for 1 h, and stimulated with 5 μM A23187 for 5 min. To analyze cellular PAF levels, lipids were extracted with 500 μl methanol containing d4-PAF and d4-lyso-PAF as internal standards. Each sample was submitted to solid phase extraction using an Oasis HLB 96-well cartridge cluster (Waters), and PAF and lyso-PAF were measured by LC-MS/MS as previously described ([13]).
Chromatography was performed using an Acquity™ Ultra-performance LC system (Waters) coupled to a TSQ Vantage triple stage quadrupole mass spectrometer (Thermo Scientific) with a HESI-II electrospray ionization source ([13]). Phospholipids were separated on BEH C8 columns (1.7 μm, 2.1 × 30 mm or 1 × 100 mm; Waters) for the analysis of assay products or the composition of cellular PAF and lyso-PAF, respectively. The mobile phase contained 20 mM aqueous ammonium bicarbonate and acetonitrile. The extracts from peritoneal macrophages were separated on a Kinetex C8 column (1.7 μm, 2.1 × 100 mm; Phenomenex, Torrance, CA) by a gradient elution with 0.05% formic acid-water and acetonitrile, using the Nexera X2 system and LCMS-8080 mass spectrometer (Shimadzu, Kyoto, Japan) ([13]). Lyso-PAF, d4-PAF, and d31-DPPC were identified by the choline fragment (m/z 184) as a product ion of selected reaction monitoring in the positive ion mode. Nonlabeled PAF and d4-16:0/20:4 alkyl-PC were determined by fatty acid anions of sn-2 composition (m/z 59 and 303, respectively) in the negative ion mode. Mass spectra were processed using the Xcalibur 2.0 (Thermo Scientific) or LabSolutions 5.50 (Shimadzu) software. Signal intensities were determined relative to the internal standard or as the percentage of the positive control. […]
Step 9 screening: cell-based assay
RAW-mLPCAT2 cells were treated with compounds for 1 h and analyzed after 5 min stimulation with A23187. The assays were performed with 0, 0.2, 0.6, 20, and 50 or 60 µM of compound. PAF concentration was measured by LC-MS/MS.
(§1) The data were normalized to each positive control (100% activation). Percentage inhibition or IC50 were determined in each screening step. To assess screening quality, the percentage coefficient of variance and the Z’ factor was calculated for each plate or each assay as described previously (2).

[2] = cell viability assay (WST-8); type: cell-based; conditions: mouse, RAW264.7 cells (wild-type), 36 h treatment, data not shown, read-out: cytotoxicity IC50 (cell viability)
Experimental: Cell viability was measured using a modified MTT [3-(4,5-dimethylthiazol-2-yl)-2,5-diphenyltetrazolium bromide] dye reduction assay using WST-8 [2-(2-methoxy-4-nitrophenyl)-3-(4-nitrophenyl)-5-(2,4-disulfophenyl)-2H-tetrazolium, monosodium salt; Dojindo Molecular Technologies, Inc., Kumamoto, Japan] according to the manufacturer’s instructions. […] or RAW-mLPCAT2 cells were seeded in 96-well plates (1 × 10^4 cells/well) for 8 h and then treated with a compound for 36 h. WST-8 was added for another 2 h and the 450 nm absorbance was measured using a microplate reader (Bio-Rad). Cell viability was expressed as a percentage of vehicle-treated control values. To observe the effects of the incubation time on cell viability, 0.4 × 10^4 RAW-mLPCAT2 cells were treated with compounds for 1 or 6 h before the WST-8 assay.
Step 8 screening: cell viability assay
Wild-type RAW264.7 cells and RAW264.7 cells transfected with mLPCAT2 or control plasmid were used. Cells were cultured for 36 h with 0, 0.06, 0.2, 0.6, 2, 6, and 20 µM of compounds in 96-well plates and assayed for viability with WST-8. […]
as §1

[3] = target: T1, mLPCAT1 (Mus musculus, UniProt Q3TFD2); experiment: lyso-PAFAT (acetyltransferase) activity assay, PAF product; type: biochemical; conditions: 20 μM compound; microsomal fractions of nonstimulated CHO-S-PAFR cells; n = 3, mean ± SEM
T1 construct: expressed in transfected cells; host or cells: CHO-S-PAFR cells, microsomal fraction
T1 sequence (Q3TFD2 1-534): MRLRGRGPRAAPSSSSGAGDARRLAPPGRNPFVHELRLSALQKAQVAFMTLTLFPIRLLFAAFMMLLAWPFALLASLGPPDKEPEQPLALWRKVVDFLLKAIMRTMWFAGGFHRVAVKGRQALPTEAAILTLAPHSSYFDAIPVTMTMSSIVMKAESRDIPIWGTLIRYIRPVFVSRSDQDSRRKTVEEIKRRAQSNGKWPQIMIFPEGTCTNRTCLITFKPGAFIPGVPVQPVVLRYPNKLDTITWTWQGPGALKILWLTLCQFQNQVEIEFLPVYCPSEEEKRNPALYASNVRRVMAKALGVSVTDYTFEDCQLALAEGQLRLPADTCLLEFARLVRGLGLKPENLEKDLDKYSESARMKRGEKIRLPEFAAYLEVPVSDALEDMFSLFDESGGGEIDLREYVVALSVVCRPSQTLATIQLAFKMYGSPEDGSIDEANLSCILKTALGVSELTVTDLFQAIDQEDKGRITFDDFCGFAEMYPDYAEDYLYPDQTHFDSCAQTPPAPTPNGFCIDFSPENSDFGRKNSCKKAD
Experimental: Microsomal protein fractions (0.5 μg) supplemented with the indicated compound concentrations were added to the reaction mixture containing 100 mM Tris-HCl (pH 7.4), 1 μM CaCl2, 0.015% Tween-20, and two substrates. For acetyltransferase activity, the substrates were 1 mM acetyl-CoA and 5 μM d4-lyso-PAF; for the acyltransferase activity of LPCAT1 or LPCAT2, the substrates were, respectively, palmitoyl-CoA and d31-16:0 LPC or arachidonoyl-CoA and d4-lyso-PAF (all 5 μM). Each lysophospholipid contained fatty acid at the sn-1 position. After incubation at 37°C for 5 min, the reactions were stopped by adding 300 μl methanol containing 17:0 LPC or 14:0/14:0 PC as an internal standard. Deuterium-labeled products were analyzed by LC-MS/MS (Waters, Milford, MA and Thermo Scientific, Waltham, MA). […]
arachidonoyl-CoA, 5 µM; palmitoyl-CoA, 5 µM; d4-lyso-PAF, 5 µM; and d31-LPC, 5 µM. […]
deuterium-labeled products were measured by LC-MS/MS. […]
Step 7 screening: species-specific differences
To evaluate the effects on the activity of mouse or human LPCAT1 and LPCAT2, each microsomal fraction was obtained using CHO-S-PAFR cells with or without mcPAF (200 nM) stimulation for 5 min. Acetyltransferase and acyltransferase assays were performed with 20 µM of each compound. Percentage inhibition was calculated in each

[4] = 1 h pretreatment, 5 μM A23187 for 5 min
[5] = screening step 9 (n = 2), 1 h compound, 5 min A23187, read-out: IC50, A23187-induced PAF production

Compound	percentage inhibition, product PAF, mLPCAT1 [3]	A23187-induced PAF production [1, 4]	lyso-PAF level [1, 4]	IC50 at 36 h [2]	IC50 [1, 5]	IC50 ([1]; 1 h pretreatment, 5 μM A23187 for 5 min, Fig. 4, three independent experiments, read-out: IC50, inhibition of PAF production)
CC(C)OC(=O)c1ccc(N2C(=O)C(Cl)=C(Nc3ccccc3O)C2=O)cc1 [TSI-07]	33.6 ± 6.1 percentage	suppressed	decreased	> 20 µM		
O=C1C(Cl)=C(N2CCOCC2)C(=O)N1c1ccc(Oc2ccccc2)cc1 [TSI-02, 3-chloro-4-morpholin-4-yl-1-(4-phenoxyphenyl)pyrrole-2,5-dione]					23.6 µM	
CC(C)OC(=O)c1ccc(N2C(=O)C(Cl)=C(Cl)C2=O)cc1 [TSI-01, propan-2-yl 4-(3,4-dichloro-2,5-dioxopyrrol-1-yl)benzoate]	89.2 ± 1.8 percentage	suppressed	increased	> 20 µM	28.2 µM	38.8 µM

Now from value to molecule, other results behind:

percentage inhibition, product PAF, mLPCAT1 [3]	Compound	A23187-induced PAF production [1, 4]	lyso-PAF level [1, 4]	IC50 at 36 h [2]	IC50 [1, 5]	IC50 ([1]; 1 h pretreatment, 5 μM A23187 for 5 min, Fig. 4, three independent experiments, read-out: IC50, inhibition of PAF production)
89.6 ± 1.1 percentage	CCCOC(=O)c1ccc(N2C(=O)C(Cl)=C(Cl)C2=O)cc1 [TSI-10]	suppressed	increased	> 20 µM		
89.3 ± 1.1 percentage	CCCCOC(=O)c1ccc(N2C(=O)C(Cl)=C(Cl)C2=O)cc1 [TSI-11, butyl 4-(3,4-dichloro-2,5-dioxopyrrol-1-yl)benzoate]	suppressed	not changed	> 20 µM		
